Each block holds one molecule with its values, some of them ahead of it.
System: 377384-186-R-J1-PDC complex spheroid viability
Test: Anticancer human tumor 377384-186-R-J1-PDC patient-derived pancreatic carcinoma cell line growth inhibition [RAS]
Settings: for IC50: curve of first compound; for viability, T/C: stronger effect = lower value
In short: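 Agents were tested in combination matrices in half-log decrements from a top concentration at or near clinical Cmax (10 microM if undetermined). Targets were multi-cell spheroids of tumour lines plus HUVEC and MSC stromal cells.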

[1] = second compound 0.000949 µM, first compound 0.0316 µM
[2] = second compound 0.000949 µM, first compound 0.1 µM
[3] = second compound 0.000949 µM, first compound 0.316 µM
[4] = second compound 0.000949 µM, first compound 1 µM
[5] = second compound 0.003 µM, first compound 0.0316 µM
[6] = second compound 0.003 µM, first compound 0.1 µM
[7] = second compound 0.003 µM, first compound 0.316 µM
[8] = second compound 0.003 µM, first compound 1 µM
[9] = second compound 0.00949 µM, first compound 0.0316 µM
[10] = second compound 0.00949 µM, first compound 0.1 µM
[11] = second compound 0.00949 µM, first compound 0.316 µM
[12] = second compound 0.00949 µM, first compound 1 µM
[13] = second compound 0.03 µM, first compound 0.0316 µM
[14] = second compound 0.03 µM, first compound 0.1 µM
[15] = second compound 0.03 µM, first compound 0.316 µM
[16] = second compound 0.03 µM, first compound 1 µM
[17] = second compound 0.0949 µM, first compound 0.0316 µM
[18] = second compound 0.0949 µM, first compound 0.1 µM
[19] = second compound 0.0949 µM, first compound 0.316 µM
[20] = second compound 0.0949 µM, first compound 1 µM
[21] = second compound 0.3 µM, first compound 0.0316 µM
[22] = second compound 0.3 µM, first compound 0.1 µM
[23] = second compound 0.3 µM, first compound 0.316 µM
[24] = second compound 0.3 µM, first compound 1 µM
[25] = second compound 0.000949 µM, first compound 3.16 µM
[26] = second compound 0.000949 µM, first compound 10 µM
[27] = second compound 0.003 µM, first compound 3.16 µM
[28] = second compound 0.003 µM, first compound 10 µM
[29] = second compound 0.00949 µM, first compound 3.16 µM
[30] = second compound 0.00949 µM, first compound 10 µM
[31] = second compound 0.03 µM, first compound 3.16 µM
[32] = second compound 0.03 µM, first compound 10 µM
[33] = second compound 0.0949 µM, first compound 3.16 µM
[34] = second compound 0.0949 µM, first compound 10 µM
[35] = second compound 0.3 µM, first compound 3.16 µM
[36] = second compound 0.3 µM, first compound 10 µM
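Note: spheroids exposed to compounds for seven days before readout.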

IC50 (second compound 0.000949 µM): 0.315 µM
IC50 (second compound 0.003 µM): 0.222 µM
IC50 (second compound 0.00949 µM): 0.257 µM
IC50 (second compound 0.03 µM): 0.126 µM
IC50 (second compound 0.0949 µM): 0.178 µM
IC50 (second compound 0.3 µM): 0.0837 µM
SMILES: CCN1CCN(Cc2ccc(Nc3ncc(F)c(-c4cc(F)c5nc(C)n(C(C)C)c5c4)n3)nc2)CC1 + CCn1c(-c2cccnc2C(C)OC)c2c3cc(ccc31)N1CCOC(CC(NC(=O)C(C(C)C)N(C)C(=O)C3(F)CCN(C(=O)C#CC(C)(C)N(C)C)CC3)C(=O)N3CCCC(N3)C(=O)OCC(C)(C)C2)C1
viability, T/C (second compound 0.000949 µM, first compound 0.00316 µM): 97%
viability, T/C (second compound 0.000949 µM, first compound 0.01 µM): 75.4%
viability, T/C [1]: 68.4%
viability, T/C [2]: 65.8%
viability, T/C [3]: 46.6%
viability, T/C [4]: 42%
viability, T/C (second compound 0.003 µM, first compound 0.00316 µM): 96%
viability, T/C (second compound 0.003 µM, first compound 0.01 µM): 78.7%
viability, T/C [5]: 75.3%
viability, T/C [6]: 54.6%
viability, T/C [7]: 45.8%
viability, T/C [8]: 41.3%
viability, T/C (second compound 0.00949 µM, first compound 0.00316 µM): 102%
viability, T/C (second compound 0.00949 µM, first compound 0.01 µM): 93.4%
viability, T/C [9]: 65.2%
viability, T/C [10]: 60%
viability, T/C [11]: 50.2%
viability, T/C [12]: 43.2%
viability, T/C (second compound 0.03 µM, first compound 0.00316 µM): 81.2%
viability, T/C (second compound 0.03 µM, first compound 0.01 µM): 89.2%
viability, T/C [13]: 75.9%
viability, T/C [14]: 52%
viability, T/C [15]: 43%
viability, T/C [16]: 44.5%
viability, T/C (second compound 0.0949 µM, first compound 0.00316 µM): 85%
viability, T/C (second compound 0.0949 µM, first compound 0.01 µM): 83.3%
viability, T/C [17]: 73.9%
viability, T/C [18]: 58.8%
viability, T/C [19]: 41.3%
viability, T/C [20]: 34.5%
viability, T/C (second compound 0.3 µM, first compound 0.00316 µM): 75.3%
viability, T/C (second compound 0.3 µM, first compound 0.01 µM): 73%
viability, T/C [21]: 64.2%
viability, T/C [22]: 48.4%
viability, T/C [23]: 34.5%
viability, T/C [24]: 35.3%

IC50 (second compound 0.000949 µM): > 10 µM
IC50 (second compound 0.003 µM): > 10 µM
IC50 (second compound 0.00949 µM): > 10 µM
IC50 (second compound 0.03 µM): > 10 µM
IC50 (second compound 0.0949 µM): > 10 µM
IC50 (second compound 0.3 µM): > 10 µM
SMILES: Cc1nc(N2CCC3(CC2)COC(C)C3N)c(CO)nc1Sc1ccnc(N)c1Cl (stereo unspecified) + CCn1c(-c2cccnc2C(C)OC)c2c3cc(ccc31)N1CCOC(CC(NC(=O)C(C(C)C)N(C)C(=O)C3(F)CCN(C(=O)C#CC(C)(C)N(C)C)CC3)C(=O)N3CCCC(N3)C(=O)OCC(C)(C)C2)C1
viability, T/C [1]: 91.7%
viability, T/C [2]: 84.8%
viability, T/C [3]: 78.1%
viability, T/C [4]: 83.8%
viability, T/C [25]: 79.5%
viability, T/C [26]: 78.4%
viability, T/C [5]: 95%
viability, T/C [6]: 97.7%
viability, T/C [7]: 95%
viability, T/C [8]: 84.7%
viability, T/C [27]: 87.7%
viability, T/C [28]: 72.6%
viability, T/C [9]: 103%
viability, T/C [10]: 74.7%
viability, T/C [11]: 74.8%
viability, T/C [12]: 75%
viability, T/C [29]: 90%
viability, T/C [30]: 79%
viability, T/C [13]: 86.2%
viability, T/C [14]: 87.3%
viability, T/C [15]: 91%
viability, T/C [16]: 79%
viability, T/C [31]: 74.4%
viability, T/C [32]: 69%
viability, T/C [17]: 82.3%
viability, T/C [18]: 84.8%
viability, T/C [19]: 70.1%
viability, T/C [20]: 63.3%
viability, T/C [33]: 77.9%
viability, T/C [34]: 71.6%
viability, T/C [21]: 77.2%
viability, T/C [22]: 72%
viability, T/C [23]: 71%
viability, T/C [24]: 70.9%
viability, T/C [35]: 66.8%
viability, T/C [36]: 61%

IC50 (second compound 0.000949 µM): > 10 µM
IC50 (second compound 0.003 µM): > 10 µM
IC50 (second compound 0.00949 µM): > 10 µM
IC50 (second compound 0.03 µM): > 10 µM
IC50 (second compound 0.0949 µM): > 10 µM
IC50 (second compound 0.3 µM): > 10 µM
SMILES: NC1c2ccccc2OC12CCN(c1cnc3c(N4CCCc5ncccc54)n[nH]c3n1)CC2 (stereo unspecified) + CCn1c(-c2cccnc2C(C)OC)c2c3cc(ccc31)N1CCOC(CC(NC(=O)C(C(C)C)N(C)C(=O)C3(F)CCN(C(=O)C#CC(C)(C)N(C)C)CC3)C(=O)N3CCCC(N3)C(=O)OCC(C)(C)C2)C1
viability, T/C [1]: 106%
viability, T/C [2]: 97.5%
viability, T/C [3]: 88.2%
viability, T/C [4]: 82.3%
viability, T/C [25]: 84.3%
viability, T/C [26]: 84.3%
viability, T/C [5]: 98.8%
viability, T/C [6]: 86.1%
viability, T/C [7]: 82.2%
viability, T/C [8]: 79.9%
viability, T/C [27]: 93.3%
viability, T/C [28]: 67.4%
viability, T/C [9]: 97.3%
viability, T/C [10]: 84.3%
viability, T/C [11]: 84.5%
viability, T/C [12]: 73.8%
viability, T/C [29]: 89.8%
viability, T/C [30]: 76.1%
viability, T/C [13]: 102%
viability, T/C [14]: 84.4%
viability, T/C [15]: 70.6%
viability, T/C [16]: 86%
viability, T/C [31]: 79.2%
viability, T/C [32]: 68.1%
viability, T/C [17]: 75.6%
viability, T/C [18]: 82.6%
viability, T/C [19]: 81%
viability, T/C [20]: 69.3%
viability, T/C [33]: 74%
viability, T/C [34]: 71.9%
viability, T/C [21]: 67.6%
viability, T/C [22]: 60.1%
viability, T/C [23]: 59.4%
viability, T/C [24]: 63.1%
viability, T/C [35]: 70.9%
viability, T/C [36]: 59.9%
